Measurements: patent US4055640A, “Compositions and methods for controlling the growth of bacteria, fungi and algae using certain derivatives of N-(2,2-dichlorovinyl)salicylamides” (Nippon Kayaku Co., Ltd., priority 1975, dated 1977)

Columns and labels:
[1] = tested on: Cladosporium cucumerinum (cucumber scab); experiment: Exterminating test on cucumber scab (Experimental Example 2); format: in vivo; parameters: scale not given here; conditions: 500 ppm, 5 days after inoculation
Protocol: Exterminating test on cucumber scab
(§1) The cucumber seeds (variety: Sagamihanjiro) were sown in pots (diameter 18 cm). Eighty percent (80%) wettable powder (contents of active compound: 80%) of the present invention was diluted with water to obtain a suspension. The suspension was sprayed over the cucumber seedlings of the stage of 3-4 leaves in an amount of 20 ml per pot. After 24 hours, these pots were inoculated by means of spray of spore suspension of Cladosporium cucumerinum. The thus-inoculated seedlings were placed in a moist chamber at 20° C for 24 hours. The pots were continuously kept in a greenhouse at 20° C. The following wettable powders on the market were used as controls.
70% wettable powder of 1,2-bis (3-methoxy carbonyl-2-thioureid) benzene (hereinafter referred to as "thiophanate methyl") on the market.
75% wettable powder of ethylene bis (dithiocarbamic acid) manganese (hereinafter referred to as "maneb") on the market. After 5 days of the inoculation, degrees attached by the pathogen were observed and the results were shown in Table 3 with an "Infected Index". The "Infected Index" was calculated as follows: [formula] A : Number of leaves which were killed by hard attack B : Number of leaves severely attacked
C : number of leaves slightly attacked
D : number of healthy leaves

[2] = tested on: cucumber seedlings (variety: Sagamihanjiro); experiment: Phytotoxicity on cucumber seedlings (Experimental Example 2); format: in vivo; conditions: 500 ppm
Protocol: as §1

[3] = tested on: Rhizoctonia solani (damping-off of cucumber); experiment: Exterminating test on damping-off of cucumber (Experimental Example 3); format: in vivo; conditions: 1,000 ppm, soil drench 50 ml per pot, 10 days
Protocol: Exterminating test on damping-off of cucumber
The pots (diameter, 12 cm) were filled with field soil and then soil infected by adding Rhizoctonia solani in an amount of 5 grams per pot uniformly into the pots. Thereafter, 10 seeds of cucumber (variety: Azumamidori) were sown in each pot.
Eighty percent (80%) wettable powder of the present invention was diluted with water to obtain a suspension and each pot was drenched with the suspension in an amount of 50 milliliters. Then, the pots were transferred to the greenhouse. Fifty percent (50%) wettable powder of pentachloronitro benzene (hereinafter referred to as PCNB) on the market was used as a control and tested by the same method. After 10 days of the inoculation, degrees attacked by the pathogen were observed and a "Percentage of healthy seedlings" was calculated. The "Percentage of healthy seedlings" was calculated as follows: [formula]

[4] = tested on: Fusarium wilt of cucumber; experiment: Exterminating test on Fusarium wilt of cucumber (Experimental Example 4); format: in vivo, Fusarium oxysporum f, cucumerinum; conditions: 500 ppm, soil drench 100 ml per pot, two weeks
Protocol: Exterminating test on Fusarium wilt of cucumber Twenty (20) grams of infected soil was added uniformly into each pot which was filled with steam sterilized field soil, then 18 seeds of cucumber (variety; Tokiwazibai) were sowed in each pot. Eighty percent (80%) wettable powder of the present invention was diluted with water to obtain a suspension, and each pot was drenched with the suspension in an amount of 100 ml. Fifty percent (50%) wettable powder of methyl-1-(butylcarbamoyl) 2-benzimidazol carbamate (hereinafter referred to as Benlate) on the market was used as a control and tested by the same method. After two weeks of planting, degrees attacked by the pathogen was observed and a "percentage of healthy seedlings" was calculated as follows: [formula]

[5] = tested on: Xanthomonas citri (citrus canker); experiment: Exterminating test on citrus canker (Experimental Example 6); format: in vivo; conditions: 1,000 ppm, 2 weeks after inoculation
Protocol: (§2) Exterminating test on citrus canker. 4-year-old summer orange seedlings, planted in unglazed pots having a diameter of 20 cm, were employed in this test. Eighty percent (80%) wettable powder of the present invention was diluted with water, and sprayed over the seedlings in an amount of 50 ml per pot. The leaves of the seedlings were inoculated Xanthomonas citri by means of a needle. After the inoculation, the seedlings were maintained in a moist chamber at 25° C for 24 hours. Then the pots were transferred into the greenhouse. Streptomycin 20% wettable powder was used as a control, and tested by the same method. After 2 weeks after the inoculation, degrees of disease attack were observed, and an "Effect Index" was calculated as follows: [formula]

summer orange seedlings = experiment: Phytotoxicity on summer orange seedlings (Experimental Example 6); format: in vivo; conditions: 1,000 ppm
Protocol: as §2

Aspergillus niger [6] = experiment: Minimum inhibitory amount, dilution methods (Example 24); format: cell-based; conditions: (1) potato-dextrose agar dilution method
From the text: (§3) Bactericidal activity and fungicidal activity of the active compounds of the present invention were examined by potato-dextrose agar dilution method, or [2] glucose bouillon medium dilution method. The results are shown in Table 10 below as the minimum inhibitory concentration (the minimum concentration of active compound found to produce 100% control of the test bacteria and fungi).

Bacillus subtilis [7] = experiment: as above; format: cell-based; conditions: (2) glucose bouillon medium dilution method
From the text: as §3

Cladosporium harbarum [8] = experiment: as above; format: cell-based; conditions: (1) potato-dextrose agar dilution method
From the text: as §3

Escherichia coli [9] = experiment: as above; format: cell-based; conditions: (2) glucose bouillon medium dilution method
From the text: as §3

Penicillium Citrinum [10] = experiment: as above; format: cell-based; conditions: (1) potato-dextrose agar dilution method
From the text: as §3

Staphylococcus aureus [11] = experiment: as above; format: cell-based; conditions: (2) glucose bouillon medium dilution method
From the text: as §3

[12] = tested on: Aspergillus niger, Penicillium citrinum, Cladosporium harbarum and chaetomium globosum; experiment: Degree of growth inhibition of fungi on treated beach plates (Example 25); format: cell-based; parameters: scale not given here; conditions: numerical rating, 2 weeks
Protocol: The emulsifiable concentrates which were prepared by Example 20 were diluted with water 400 times and 800 times to form emulsions.
(§4) The square plates of beach of which a side was 5 cm long and thickness was 5 mm were dipped into the emulsion for 2 minutes and dried for 24 hours at room temperature.
(§5) The square plates were placed on the surface of agar plates. The suspensions which contained spores of Aspergillus niger, Penicillium citrinum, Cladosporium harbarum and chaetomium globosum were respectively sprayed on the agar plates and the square plates.
The test fungi were cultivated in the incubator at the humidity of 95% and the temperature of 28° C for 2 weeks. The degree of growth inhibition is defined in terms of the following numerical ratings.

Aspergillus niger [13] = experiment: Region of growth-inhibition around treated cotton cloth (Example 26); format: cell-based; conditions: emulsifiable concentrate diluted 100 times
Protocol: (§6) The emulsifiable concentrates which were prepared by Example 20 were diluted with water 100 times to form an emulsion. A cloth of cotton was soaked into each emulsion for 2 minutes. The clothes were dried at room temperature and cut into a square of which a side was 1 cm long. Each kind of test bacteria and fungi was inoculated, separately, on plates of potato-agar and one square cloth placed on each of such plates. Test bacteria and fungi were cultivated at 28° C for 4 days. The width of the region of growth-inhibition which was formed a circumference of the cloth was measured.

Bacillus subtilis [14] = experiment: as above; format: cell-based; conditions: emulsifiable concentrate diluted 100 times
Protocol: as §6

Penicillium Citrinum [15] = experiment: as above; format: cell-based; conditions: emulsifiable concentrate diluted 100 times
Protocol: as §6

Staphylococcus oureus = experiment: as above; format: cell-based; conditions: emulsifiable concentrate diluted 100 times
Protocol: as §6

green algae = experiment: Degree of propagation on slime test boards (Example 27); format: cell-based; conditions: same method, shaking culture for 2 days
Protocol: Zero point zero two (0.02) part of active compounds in the form of 10% water soluble concentrate which was prepared by Example 23 was added into 100 parts of Waxman's liquid medium. Peices of Wood iron (hereafter referred to as the slime test boards) were soaked into the Waxman's liquid medium. The bacteria which were gathered from circular water system were inoculated upon the Waxman's liquid medium and incubated at 27°-34° C by shaking culture for 2 days. The degree of propagation of the bacteria on the slime test boards was examined.
Thegrowth-inhibiting activity of active compounds against the fungi and the green algae was also examined by the same method as mentioned above.
The degree of propagation of the bacteria, fungi or green algae on the test boards is defined in terms of the following symbols.

Aspergillus niger [16] = experiment: Minimum inhibitory concentration, dilution methods (Example 14); format: cell-based; conditions: (1) potato-dextrose agar dilution method
From the text: as §3, with “Bacteriocidal activity” for “Bactericidal activity”, “method, [2] waxman's liquid medium dilution method” for “method,”, “or [3]” for “or [2]”, “Table 4” for “Table 10”

Bacillus subtilis [17] = experiment: as above; format: cell-based; conditions: (3) glucose bouillon medium dilution method
From the text: as §3, with “Bacteriocidal activity” for “Bactericidal activity”, “method, [2] waxman's liquid medium dilution method” for “method,”, “or [3]” for “or [2]”, “Table 4” for “Table 10”

Cladosporium harbarum [18] = experiment: as above; format: cell-based; conditions: (1) potato-dextrose agar dilution method
From the text: as §3, with “Bacteriocidal activity” for “Bactericidal activity”, “method, [2] waxman's liquid medium dilution method” for “method,”, “or [3]” for “or [2]”, “Table 4” for “Table 10”

Escherichia coli [19] = experiment: as above; format: cell-based; conditions: (3) glucose bouillon medium dilution method
From the text: as §3, with “Bacteriocidal activity” for “Bactericidal activity”, “method, [2] waxman's liquid medium dilution method” for “method,”, “or [3]” for “or [2]”, “Table 4” for “Table 10”

Penicillium Citrinum [20] = experiment: as above; format: cell-based; conditions: (1) potato-dextrose agar dilution method
From the text: as §3, with “Bacteriocidal activity” for “Bactericidal activity”, “method, [2] waxman's liquid medium dilution method” for “method,”, “or [3]” for “or [2]”, “Table 4” for “Table 10”

Staphylococcus aureus [21] = experiment: as above; format: cell-based; conditions: (3) glucose bouillon medium dilution method
From the text: as §3, with “Bacteriocidal activity” for “Bactericidal activity”, “method, [2] waxman's liquid medium dilution method” for “method,”, “or [3]” for “or [2]”, “Table 4” for “Table 10”

[22] = tested on: Aspergillus niger, Penicillium citrinum, Cladosporium harbarum and chaetomium globosum; experiment: Degree of growth inhibition of fungi on treated beach plates (Example 17); format: cell-based; parameters: scale not given here; conditions: numerical rating, 2 weeks
Protocol: The emulsifiable concentrates which were prepared by Example 10 were diluted with water 400 times and 800 times to form emulsions.
as §4, §5
The test fungi were cultivated in the incubator at the humidity of 95% and the temperature of 28° C for 2 weeks.
The degree of growth inhibition is defined in terms of the following numerical ratings.

[23] = tested on: seedling blight of rice plant (pathogen Fusarium sp. and Rhizoctonia sp.); experiment: Exterminating test on seedling blight of rice plant (Experimental Example 1); format: in vivo; conditions: 0.25g/box a.i., 5% dust mixed with soil
Protocol: Exterminating test on seedling blight of rice plant Nursery boxes (60 × 30 × 3 cm) were filled with soil which were contaminated with pathogen (Fusarium sp. and Rhizoctonia sp.) The dust in which the present compound was contained in a ratio of 5% by weight was added in the box in a ratio of 5 grams per box and mixed well with soil. Thereafter, seeds of rice plant (variety: Nihonbare) were sowed in drills at a rate of 0.3 liter per box and grown up in a lighting chamber at 17° C. After 7 days from the sowing, the boxes were carried out in the field. Furthermore, 10 days thereafter the observations were made. Four percent (4%) dust of 3-hydroxy-5-methyl isoxazol (hereinafter referred to as hydroxyisoxazol) on the market was used as a control and tested by the same method. The test results are shown in Table 2 with a "percentage of healthy seedlings". The percentage of healthy seedlings was calculated as follows: […]

Row | SMILES | Percentage of healthy seedlings [3] [%] | Percentage of healthy seedlings [4] [%] | Effect Index [5] | Phytotoxicity (summer orange seedlings) | Minimum inhibitory amount (Aspergillus niger [6]) [µg/mL] | Minimum inhibitory amount (Bacillus subtilis [7]) [µg/mL] | Minimum inhibitory amount (Cladosporium harbarum [8]) [µg/mL] | Minimum inhibitory amount (Escherichia coli [9]) [µg/mL] | Minimum inhibitory amount (Penicillium Citrinum [10]) [µg/mL] | Minimum inhibitory amount (Staphylococcus aureus [11]) [µg/mL] | Degree of growth inhibition ([12]; 0.0125 %) | Degree of growth inhibition ([12]; 0.025 %) | other results
1 | O=C(NC=C(Cl)Cl)c1cc(Br)ccc1[O-].O=C(NC=C(Cl)Cl)c1cc(Br)ccc1[O-].[Zn+2] [compound 25] | 80 | 49.5 | 80.6 | Nil | 20 | 5 | 10 | 60 | 20 | 5 | 2 | 3 | Infected Index [1]: 12.1; Phytotoxicity [2]: Nil; width of the region of growth-inhibition (Aspergillus niger [13]): 6 mm; width of the region of growth-inhibition (Bacillus subtilis [14]): 6 mm; width of the region of growth-inhibition (Penicillium Citrinum [15]): 5 mm; width of the region of growth-inhibition (Staphylococcus oureus): 6 mm; Degree of propagation (green algae): + (the area of propagation is 1-25% on the slime test boards.)
2 | O=C(NC=C(Cl)Cl)c1ccccc1[O-].O=C(NC=C(Cl)Cl)c1ccccc1[O-].[Cu+2] [compound 26] | 100 | 58.0 | 47.5 | Nil |  |  |  |  |  |  |  |  | minimum inhibitory concentration (Aspergillus niger [16]): 10 mc g/ml; minimum inhibitory concentration (Bacillus subtilis [17]): 5 mc g/ml; minimum inhibitory concentration (Cladosporium harbarum [18]): 5 mc g/ml; minimum inhibitory concentration (Escherichia coli [19]): 60 mc g/ml; minimum inhibitory concentration (Penicillium Citrinum [20]): 10 mc g/ml; minimum inhibitory concentration (Staphylococcus aureus [21]): 5 mc g/ml; Degree of growth inhibition ([22]; 0.0125 %): 3; Degree of growth inhibition ([22]; 0.025 %): 3
3 | O=C(NC=C(Cl)Cl)c1cc(Br)ccc1[O-].O=C(NC=C(Cl)Cl)c1cc(Br)ccc1[O-].[Mn+2] [compound 29] | 55 | 57.5 | 56.2 | Nil | 20 | 5 | 10 | 60 | 20 | 10 | 2 | 3 | Percentage of healthy seedlings [23]: 69.8%
